# pIC50: −log10 of the molar value.
# Experiments:
# [1] = biological target: Axl (Homo sapiens (Human), UniProt P30530); settings: read-out: IC50 Axl
# [2] = biological target: Tyro3 (Homo sapiens (Human), UniProt Q06418); settings: read-out: IC50 Tyro3
# Sequence of Tyro3 (Q06418 41-890 limits assumed): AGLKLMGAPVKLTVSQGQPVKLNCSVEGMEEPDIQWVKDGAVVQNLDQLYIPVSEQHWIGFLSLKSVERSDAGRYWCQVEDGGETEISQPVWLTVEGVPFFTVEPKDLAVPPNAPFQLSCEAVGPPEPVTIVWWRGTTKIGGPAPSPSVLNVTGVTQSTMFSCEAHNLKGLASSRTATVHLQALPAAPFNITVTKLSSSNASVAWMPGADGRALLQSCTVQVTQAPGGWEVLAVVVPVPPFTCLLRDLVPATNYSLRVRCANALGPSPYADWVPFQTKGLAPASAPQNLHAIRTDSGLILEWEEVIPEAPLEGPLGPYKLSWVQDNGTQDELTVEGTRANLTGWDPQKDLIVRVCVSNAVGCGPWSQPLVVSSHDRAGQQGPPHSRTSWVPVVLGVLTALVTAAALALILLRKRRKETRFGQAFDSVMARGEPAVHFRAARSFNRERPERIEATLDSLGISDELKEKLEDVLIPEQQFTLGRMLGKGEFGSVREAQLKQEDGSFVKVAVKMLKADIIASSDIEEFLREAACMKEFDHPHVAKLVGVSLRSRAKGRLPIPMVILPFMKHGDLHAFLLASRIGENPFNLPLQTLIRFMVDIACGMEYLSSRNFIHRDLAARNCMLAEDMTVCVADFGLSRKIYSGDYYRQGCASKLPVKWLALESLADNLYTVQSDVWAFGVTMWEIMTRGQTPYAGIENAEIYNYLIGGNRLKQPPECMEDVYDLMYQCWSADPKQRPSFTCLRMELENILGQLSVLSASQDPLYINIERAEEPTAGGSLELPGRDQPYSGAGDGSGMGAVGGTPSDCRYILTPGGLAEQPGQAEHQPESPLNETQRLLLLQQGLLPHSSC
# Sequence of Axl (P30530 26-894 limits assumed): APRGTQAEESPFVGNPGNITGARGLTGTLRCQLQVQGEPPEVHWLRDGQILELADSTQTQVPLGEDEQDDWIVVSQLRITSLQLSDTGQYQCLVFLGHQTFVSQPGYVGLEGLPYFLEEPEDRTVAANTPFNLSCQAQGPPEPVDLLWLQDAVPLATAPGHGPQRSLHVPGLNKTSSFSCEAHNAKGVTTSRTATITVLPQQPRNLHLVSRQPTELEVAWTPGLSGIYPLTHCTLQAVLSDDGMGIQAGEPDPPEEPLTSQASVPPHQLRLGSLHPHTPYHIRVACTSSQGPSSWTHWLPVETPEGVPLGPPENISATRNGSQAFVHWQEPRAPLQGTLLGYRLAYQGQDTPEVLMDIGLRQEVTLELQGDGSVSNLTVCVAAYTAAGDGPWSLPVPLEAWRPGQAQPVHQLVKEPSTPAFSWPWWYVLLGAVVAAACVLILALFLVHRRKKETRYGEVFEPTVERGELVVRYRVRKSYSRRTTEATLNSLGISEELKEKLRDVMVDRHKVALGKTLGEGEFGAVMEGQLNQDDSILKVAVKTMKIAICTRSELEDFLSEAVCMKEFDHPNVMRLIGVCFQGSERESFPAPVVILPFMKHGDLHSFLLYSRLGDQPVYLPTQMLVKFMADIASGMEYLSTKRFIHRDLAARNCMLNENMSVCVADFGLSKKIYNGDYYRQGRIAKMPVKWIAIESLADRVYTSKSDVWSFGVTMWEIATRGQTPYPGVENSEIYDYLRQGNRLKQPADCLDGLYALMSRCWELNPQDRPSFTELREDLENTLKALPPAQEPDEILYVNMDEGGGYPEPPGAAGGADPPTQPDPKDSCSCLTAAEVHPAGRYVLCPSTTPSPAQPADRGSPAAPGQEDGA
SMILES,pIC50 [1],pIC50 [2]
CCCCNc1ncc(C(=O)NCCCN2CCOCC2)c(NCCCC)n1 [UNC1840A],5.26,5.33
CCCCNc1ncc(C(=O)NCC2CCCCC2)c(N[C@H]2CC[C@H](O)CC2)n1 [UNC2603A],5.95,6.30
CCCCNc1ncc(C(=O)NCC(=O)N2CCCCC2)c(N[C@H]2CC[C@H](O)CC2)n1 [UNC2604A],5.92,6.39
CCCCNc1ncc(-c2ccc(NC(=O)C3CC3)cn2)c(NC2CCC(O)CC2)n1 (stereo not drawn) [UNC2711A],6.19,6.58
CCCCNc1ncc(-c2ccc(NC(=O)C3CCCCC3)cn2)c(NC2CCC(O)CC2)n1 (stereo not drawn) [UNC2712A],6.44,6.68
CCCCNc1ncc(-c2ccc(NC(=O)c3ccccc3)cn2)c(NC2CCC(O)CC2)n1 (stereo not drawn) [UNC2713A],6.28,6.49
CCCCNc1ncc(C(=O)NCc2ccc(-n3cccn3)cc2)c(N[C@H]2CC[C@H](O)CC2)n1 [UNC2744A],6.56,6.76
CCCCNc1ncc(C(=O)NCc2cccs2)c(N[C@H]2CC[C@H](O)CC2)n1 [UNC2762A],6.66,6.83
CCCCNc1ncc(C(=O)NCc2cccc3ccccc23)c(N[C@H]2CC[C@H](O)CC2)n1 [UNC2763A],5.96,6.30
CCCCNc1ncc(C(=O)Nc2ccc(CN3CCN(C)CC3)cc2)c(N[C@H]2CC[C@H](O)CC2)n1 [UNC2764A],6.75,–
CCCCNc1ncc(-c2ccc(NC(=O)C3CCC3)cn2)c(NC2CCC(O)CC2)n1 (stereo not drawn) [UNC2790A],6.08,6.47
CCCCNc1ncc(-c2ccc(NC(=O)C3CCCC3)cn2)c(NC2CCC(O)CC2)n1 (stereo not drawn) [UNC2791A],6.05,6.38
CCCCNc1ncc(C(=O)NC2CCN(CCc3ccccc3)CC2)c(N[C@H]2CC[C@H](O)CC2)n1 [UNC2800A],6.50,6.89
CCCCNc1ncc(C(=O)NC2CCN(CCCc3ccccc3)CC2)c(N[C@H]2CC[C@H](O)CC2)n1 [UNC2801A],6.69,6.95
CCCCNc1ncc(C(=O)NC2CCN(Cc3cccnc3)CC2)c(N[C@H]2CC[C@H](O)CC2)n1 [UNC2802A],6.39,6.91
CCCCNc1ncc(C(=O)NCc2ccc(N3CCOCC3)cc2)c(N[C@H]2CC[C@H](O)CC2)n1 [UNC2804A],6.23,6.68
CCCCNc1ncc(C(=O)Nc2ccc(CCN3CCOCC3)cc2)c(N[C@H]2CC[C@H](O)CC2)n1 [UNC2805A],6.39,6.74
CCCCNc1ncc(C(=O)Nc2ccc(CCN3CCN(C)CC3)cc2)c(N[C@H]2CC[C@H](O)CC2)n1 [UNC2806A],6.58,7.01
CCCCNc1ncc(C(=O)NC2CCN(CC3CCCCC3)CC2)c(N[C@H]2CC[C@H](O)CC2)n1 [UNC2877A],6.61,6.64
CCCCNc1ncc(C(=O)NC2CCN(CC3CCCC3)CC2)c(N[C@H]2CC[C@H](O)CC2)n1 [UNC2878A],6.72,6.78
CCCCNc1ncc(C(=O)NCc2ccc(-n3cccc3)cc2)c(N[C@H]2CC[C@H](O)CC2)n1 [UNC2880A],6.09,6.25
CCCCNc1ncc(C(=O)NCc2ccc(N3CCCC3)cc2)c(N[C@H]2CC[C@H](O)CC2)n1 [UNC2886A],6.49,6.74
"CCCCNc1ncc(-c2ccc(C=O)o2)c(N[C@H]2CC[C@H](O)CC2)n1 [UNC2902A, 5-(2-(Butylamino)-4-((trans-4-hydroxycyclohexyl)amino)pyrimidin-5-yl)furan-2-carbaldehyde]",5.79,6.62

SMILES,pIC50 [1],pIC50 [2]
CCCCNc1ncc(C(=O)NC2CCN(Cc3ccc(N4CCOCC4)cc3)CC2)c(N[C@H]2CC[C@H](O)CC2)n1 [UNC2918A],6.18,6.84
CCCCNc1ncc(C(=O)NCc2ccc(-n3cnc(C)c3)cc2)c(N[C@H]2CC[C@H](O)CC2)n1 [UNC2956A],6.87,6.70
CCCCNc1ncc(C(=O)NCc2ccc(-n3ccnc3-c3ccccc3)cc2)c(N[C@H]2CC[C@H](O)CC2)n1 [UNC2957A],6.23,6.01
CCCCNc1ncc(-c2ccccn2)c(NCCCCCO)n1 [UNC2964A],5.28,5.56
CCCCNc1ncc(C(=O)NCc2ccc(-n3cnc(-c4ccccc4)c3)cc2)c(N[C@H]2CC[C@H](O)CC2)n1 [UNC2969A],6.18,5.97
CCCCNc1ncc(-c2ccccn2)c(NCCO)n1 [UNC2997A],4.52,4.70
CCCCNc1ncc(-c2ccccn2)c(Nc2ccc(O)cc2)n1 [UNC2998A],4.52,6.44
CCCCNc1ncc(C(=O)NCc2ccc(-n3ccnc3C)cc2)c(N[C@H]2CC[C@H](O)CC2)n1 [UNC3004A],6.09,6.57
CCCCNc1ncc(-c2cnc(N)cn2)c(N[C@H]2CC[C@H](O)CC2)n1 [UNC3041A],6.01,6.22
CCCCNc1ncc(-c2ccc(C(=O)O)nn2)c(N[C@H]2CC[C@H](O)CC2)n1 [UNC3042A],6.25,6.72
CCCCNc1ncc(-c2cnc(N)c(OC)n2)c(N[C@H]2CC[C@H](O)CC2)n1 [UNC3043A],5.64,5.79
CCCCNc1ncc(-c2ccc(N3CCCC3)nn2)c(N[C@H]2CC[C@H](O)CC2)n1 [UNC3044A],6.04,6.42
CCCCNc1ncc(-c2nccs2)c(N[C@H]2CC[C@H](O)CC2)n1 [UNC3047A],6.22,6.80
CCCCNc1ncc(-c2ccc(OC)nn2)c(N[C@H]2CC[C@H](O)CC2)n1 [UNC3049A],5.35,6.66
CCCCNc1ncc(-c2ccc(NC3CC3)nn2)c(N[C@H]2CC[C@H](O)CC2)n1 [UNC3069A],6.38,6.75
CCCCNc1ncc(-c2ccc(N3CCN(C(=O)OC(C)(C)C)CC3)nn2)c(N[C@H]2CC[C@H](O)CC2)n1 [UNC3071A],6.56,6.53
CCCCNc1ncc(-c2cc(N)ncn2)c(N[C@H]2CC[C@H](O)CC2)n1 [UNC3072A],6.91,7.37
CCCCNc1ncc(-c2cnc(SC)cn2)c(N[C@H]2CC[C@H](O)CC2)n1 [UNC3074A],6.12,6.59
CCCCNc1ncc(-c2cc(NCC)ncn2)c(N[C@H]2CC[C@H](O)CC2)n1 [UNC3113A],6.59,7.11
CCCCNc1ncc(-c2cncc(N3CCCC3)n2)c(N[C@H]2CC[C@H](O)CC2)n1 [UNC3115A],6.19,6.38
CCCCNc1ncc(-c2cn(C)cn2)c(N[C@H]2CC[C@H](O)CC2)n1 [UNC3116A],5.00,5.40
CCCCNc1ncc(-c2cn(C(c3ccccc3)(c3ccccc3)c3ccccc3)cn2)c(N[C@H]2CC[C@H](O)CC2)n1 [UNC3117A],4.52,4.52
CCCCNc1ncc(-c2nccnc2N)c(N[C@H]2CC[C@H](O)CC2)n1 [UNC3119A],4.52,5.02

SMILES,pIC50 [1],pIC50 [2]
CCCCNc1ncc(-c2ncc(CN3CCN(C)CC3)s2)c(N[C@H]2CC[C@H](O)CC2)n1 [UNC3121A],7.02,7.15
CCCCNc1ncc(-c2cc(NC)ncn2)c(N[C@H]2CC[C@H](O)CC2)n1 [UNC3126A],6.44,6.96
CCCCNc1ncc(-c2cc(SC)nc(C)n2)c(N[C@H]2CC[C@H](O)CC2)n1 [UNC3130A],5.96,6.42
CCCCNc1ncc(-c2ncc(C(N)=O)s2)c(N[C@H]2CC[C@H](O)CC2)n1 [UNC3134A],6.84,7.21
CCCCNc1ncc(-c2nc(CO)cs2)c(N[C@H]2CC[C@H](O)CC2)n1 [UNC3135A],6.52,6.78
CCCCNc1ncc(-c2nc(C(N)=O)cs2)c(N[C@H]2CC[C@H](O)CC2)n1 [UNC3136A],6.63,7.12
CCCCNc1ncc(-c2cncc(NC3CCCCC3)n2)c(N[C@H]2CC[C@H](O)CC2)n1 [UNC3137A],5.91,6.39
CCCCNc1ncc(-c2cncc(N3CCOCC3)n2)c(N[C@H]2CC[C@H](O)CC2)n1 [UNC3138A],5.90,6.03
CCCCNc1ncc(-c2nc(C(=O)O)cs2)c(N[C@H]2CC[C@H](O)CC2)n1 [UNC3139A],5.34,5.59
CCCCNc1ncc(-c2ncc(C)s2)c(N[C@H]2CC[C@H](O)CC2)n1 [UNC3140A],6.40,6.49
CCCCNc1ncc(-c2ccc(-c3cccc(C(=O)O)c3)nn2)c(N[C@H]2CC[C@H](O)CC2)n1 [UNC3141A],4.52,–
CCCCNc1ncc(C(=O)NCc2ccc(Cn3ccnc3)cc2)c(N[C@H]2CC[C@H](O)CC2)n1 [UNC3144A],6.31,6.44
OCCCCNc1ncc(-c2nccs2)c(N[C@H]2CC[C@H](O)CC2)n1 [UNC3146A],6.01,6.00
CCCCNc1ncc(-c2nc(C(F)(F)F)cs2)c(N[C@H]2CC[C@H](O)CC2)n1 [UNC3149A],4.52,4.52
CCCCNc1ncc(-c2cc(NC(=O)c3ccc(F)cc3)ncn2)c(N[C@H]2CC[C@H](O)CC2)n1 [UNC3182A],4.52,4.52
CCCCNc1ncc(C(=O)NCc2ccc(-n3cnc(CO)c3)cc2)c(N[C@H]2CC[C@H](O)CC2)n1 [UNC3183A],6.15,6.43
CCCCNc1ncc(-c2ncc(C(=O)O)s2)c(N[C@H]2CC[C@H](O)CC2)n1 [UNC3331A],6.38,7.02
CCCCNc1ncc(-c2ccc(C3(N4CCOCC4)CC3)cn2)c(NC2CCC(O)CC2)n1 (stereo not drawn) [UNC3664A],7.03,7.74
CCCCNc1ncc(-c2ccc(CN3CC(C)NC(C)C3)cn2)c(NC2CCC(O)CC2)n1 (stereo not drawn) [UNC4105A],–,7.57
CCCCNc1ncc(-c2ccc(CN3CCNCC3(C)C)cn2)c(NC2CCC(O)CC2)n1 (stereo not drawn) [UNC4110A],–,7.72
CCCCNc1ncc(C(=O)NCc2ccon2)c(N[C@H]2CC[C@H](O)CC2)n1 [UNC4290A],–,6.43
